These results are taken from patent US9822114B2, “Tricyclic oxazolidinone antibiotic compounds” (Idorsia Pharmaceuticals Ltd, priority 2008, dated 2017).

Structures are written as SMILES. ≈ marks a conversion by molar mass, not a printed value. Bounds are passed on as bounds.

This experiment has as its system M. catarrhalis A894. Description: Minimal inhibitory concentration (MIC), microdilution method in cation-adjusted Mueller-Hinton Broth (CLSI M7-A7). Type of experiment: cell-based. The following applies: Moraxella catarrhalis, strain A894. The protocol: Minimal inhibitory concentrations (MICs; mg/1) were determined in cation-adjusted Mueller-Hinton Broth by a microdilution method following the description given in “Methods for Dilution Antimicrobial Susceptibility Tests for Bacteria that Grow Aerobically”, Approved standard, 7th ed., Clinical and Laboratory Standards Institute (CLSI) Document M7-A7, Wayne, Pa., USA, 2006.
Molecule `O=C1COc2ccc(N3C[C@@H](CCCN[C@H]4Cn5c(=O)ccc6nccc4c65)OC3=O)cc2N1` [Example 19, (4R)-4-{3-[(R)-2-oxo-3-(3-oxo-3,4-dihydro-2H-benzo[1,4]oxazin-6-yl)-oxazolidin-5-yl]-propylamino}-4,5-dihydro-pyrrolo[3,2,1-de][1,5]naphthyridin-7-one] gave an MIC of at most 0.031 µg/mL.

`O=C1CSc2ccc(N3C[C@@H](CCCN[C@@H]4Cn5c(=O)ccc6nccc4c65)OC3=O)cc2N1` [Example 39, (S)-4-{3-[(R)-2-oxo-3-(3-oxo-3,4-dihydro-2H-benzo[1,4]thiazin-6-yl)-oxazolidin-5-yl]-propylamino}-4,5-dihydro-pyrrolo[3,2,1-de][1,5]naphthyridin-7-one] had a minimal inhibitory concentration (MIC) of at most 0.031 µg/mL.

In turn, `O=C1COc2ccc(N3C[C@@H](CCCN[C@@H]4Cn5c(=O)ccc6nccc4c65)OC3=O)cc2N1` [Example 40, (S)-4-{3-[(R)-2-oxo-3-(3-oxo-3,4-dihydro-2H-benzo[1,4]oxazin-6-yl)-oxazolidin-5-yl]-propylamino}-4,5-dihydro-pyrrolo[3,2,1-de][1,5]naphthyridin-7-one] showed an MIC of 0.125 µg/mL (≈ 0.271 µM).

On to `O=C1CSc2ccc(N3C[C@H](CCN[C@@H]4Cn5c(=O)ccc6nccc4c65)OC3=O)cc2N1` [Example 41, (S)-4-{2-[(S)-2-oxo-3-(3-oxo-3,4-dihydro-2H-benzo[1,4]thiazin-6-yl)-oxazolidin-5-yl]-ethylamino}-4,5-dihydro-pyrrolo[3,2,1-de][1,5]naphthyridin-7-one], for which the MIC worked out at 0.5 µg/mL (≈ 1.08 µM).

`O=C1CSc2ccc(N3C[C@@H](CCCN[C@@H]4Cn5c(=O)cnc6cccc4c65)OC3=O)cc2N1` [Example 48, (S)-6-{3-[(R)-2-oxo-3-(3-oxo-3,4-dihydro-2H-benzo[1,4]thiazin-6-yl)-oxazolidin-5-yl]-propylamino}-5,6-dihydro-pyrrolo[1,2,3-de]quinoxalin-3-one]: the minimal inhibitory concentration (MIC) is at most 0.031 µg/mL.

With `O=C1CSc2ccc(N3C[C@H](CCNC[C@H]4Cn5c(=O)ccc6ccc(F)c4c65)OC3=O)cc2N1` [Example 49, (S)-9-fluoro-1-({2-[(S)-2-oxo-3-(3-oxo-3,4-dihydro-2H-benzo[1,4]thiazin-6-yl)-oxazolidin-5-yl]-ethylamino}-methyl)-1,2-dihydro-pyrrolo[3,2,1-ij]quinolin-4-one], the MIC was at most 0.031 µg/mL.

`O=C1CSc2ccc(N3C[C@H](CCNC[C@@H]4Cn5c(=O)ccc6ccc(F)c4c65)OC3=O)cc2N1` [Example 50, (R)-9-fluoro-1-({2-[(S)-2-oxo-3-(3-oxo-3,4-dihydro-2H-benzo[1,4]thiazin-6-yl)-oxazolidin-5-yl]-ethylamino}-methyl)-1,2-dihydro-pyrrolo[3,2,1-ij]quinolin-4-one] showed an MIC of at most 0.031 µg/mL.

With `O=C1CSc2ccc(N3C[C@@H](CCN[C@@H]4Cn5c(=O)cnc6cccc4c65)OC3=O)cc2N1` [Example 54, (S)-6-{2-[(R)-2-oxo-3-(3-oxo-3,4-dihydro-2H-benzo[1,4]thiazin-6-yl)-oxazolidin-5-yl]-ethylamino}-5,6-dihydro-pyrrolo[1,2,3-de]quinoxalin-3-one], the MIC was found to be 0.25 µg/mL (≈ 0.539 µM).

In the case of `O=C1CSc2ccc(N3C[C@H](CCN[C@@H]4Cn5c(=O)cnc6cccc4c65)OC3=O)cc2N1` [Example 55, (S)-6-{2-[(S)-2-oxo-3-(3-oxo-3,4-dihydro-2H-benzo[1,4]thiazin-6-yl)-oxazolidin-5-yl]-ethylamino}-5,6-dihydro-pyrrolo[1,2,3-de]quinoxalin-3-one], the MIC was at most 0.031 µg/mL.

The molecule `O=C1COc2ccc(N3C[C@@H](CCCN[C@@H]4Cn5c(=O)cnc6ccc(F)c4c65)OC3=O)cc2N1` [Example 57, (S)-7-fluoro-6-{3-[(R)-2-oxo-3-(3-oxo-3,4-dihydro-2H-benzo[1,4]oxazin-6-yl)-oxazolidin-5-yl]-propylamino}-5,6-dihydro-pyrrolo[1,2,3-de]quinoxalin-3-one] displayed an MIC of at most 0.031 µg/mL.

Consider `O=C1CSc2ccc(N3C[C@@H](CCCN[C@@H]4Cn5c(=O)cnc6ccc(F)c4c65)OC3=O)cc2N1` [Example 58, (S)-7-fluoro-6-{3-[(R)-2-oxo-3-(3-oxo-3,4-dihydro-2H-benzo[1,4]thiazin-6-yl)-oxazolidin-5-yl]-propylamino}-5,6-dihydro-pyrrolo[1,2,3-de]quinoxalin-3-one], for which the minimum inhibitory concentration (MIC) was at most 0.031 µg/mL.

For the molecule `O=C1CSc2ccc(N3C[C@@H](CCCN[C@H]4Cn5c(=O)cnc6cccc4c65)OC3=O)cc2N1` [Example 64, (R)-6-{3-[(R)-2-oxo-3-(3-oxo-3,4-dihydro-2H-benzo[1,4]thiazin-6-yl)-oxazolidin-5-yl]-propylamino}-5,6-dihydro-pyrrolo[1,2,3-de]quinoxalin-3-one], the MIC was at most 0.031 µg/mL.

In turn, `O=C1COc2ccc(N3C[C@@H](CCCN[C@H]4Cn5c(=O)cnc6cccc4c65)OC3=O)cc2N1` [Example 65, (R)-6-{3-[(R)-2-oxo-3-(3-oxo-3,4-dihydro-2H-benzo[1,4]oxazin-6-yl)-oxazolidin-5-yl]-propylamino}-5,6-dihydro-pyrrolo[1,2,3-de]quinoxalin-3-one] returned an MIC of at most 0.031 µg/mL.

In the case of `O=C1CSc2ccc(N3C[C@@H](CCCN(CCO)[C@@H]4Cn5c(=O)cnc6ccc(F)c4c65)OC3=O)cc2N1` [Example 66, (S)-7-fluoro-6-((2-hydroxy-ethyl)-{3-[(R)-2-oxo-3-(3-oxo-3,4-dihydro-2H-benzo[1,4]thiazin-6-yl)-oxazolidin-5-yl]-propyl}-amino)-5,6-dihydro-pyrrolo[1,2,3-de]quinoxalin-3-one], the MIC was at most 0.031 µg/mL.

`O=C1COc2ccc(N3C[C@@H](CCCN(CCO)[C@@H]4Cn5c(=O)cnc6ccc(F)c4c65)OC3=O)cc2N1` [Example 67, (S)-7-fluoro-6-((2-hydroxy-ethyl)-{3-[(R)-2-oxo-3-(3-oxo-3,4-dihydro-2H-benzo[1,4]oxazin-6-yl)-oxazolidin-5-yl]-propyl}-amino)-5,6-dihydro-pyrrolo[1,2,3-de]quinoxalin-3-one] registered a minimal inhibitory concentration (MIC) of at most 0.063 µg/mL.

Molecule `O=C1COc2ccc(N3C[C@@H](CCCN[C@@H]4Cn5c(=O)cnc6ccc(F)c4c65)OC3=O)nc2N1` [Example 71, (S)-7-fluoro-6-{3-[(R)-2-oxo-3-(3-oxo-3,4-dihydro-2H-pyrido[3,2-b][1,4]oxazin-6-yl)-oxazolidin-5-yl]-propylamino}-5,6-dihydro-pyrrolo[1,2,3-de]quinoxalin-3-one] had a minimal inhibitory concentration (MIC) of at most 0.031 µg/mL.

In turn, `O=C1CSc2ccc(N3C[C@@H](CCCN[C@@H]4Cn5c(=O)ccc6cccc4c65)OC3=O)cc2N1` [Example 72, (S)-1-{3-[(R)-2-oxo-3-(3-oxo-3,4-dihydro-2H-benzo[1,4]thiazin-6-yl)-oxazolidin-5-yl]-propylamino}-1,2-dihydro-pyrrolo[3,2,1-ij]quinolin-4-one] had an MIC of at most 0.031 µg/mL.

Molecule `O=C1COc2ccc(N3C[C@@H](CCCN[C@@H]4Cn5c(=O)ccc6cccc4c65)OC3=O)cc2N1` [Example 73, (S)-1-{3-[(R)-2-oxo-3-(3-oxo-3,4-dihydro-2H-benzo[1,4]oxazin-6-yl)-oxazolidin-5-yl]-propylamino}-1,2-dihydro-pyrrolo[3,2,1-ij]quinolin-4-one] showed an MIC of at most 0.031 µg/mL.

`O=C1COc2ccc(N3C[C@@H](CCCN[C@@H]4Cn5c(=O)ccc6cccc4c65)OC3=O)nc2N1` [Example 74, (S)-1-{3-[(R)-2-oxo-3-(3-oxo-3,4-dihydro-2H-pyrido[3,2-b][1,4]oxazin-6-yl)-oxazolidin-5-yl]-propylamino}-1,2-dihydro-pyrrolo[3,2,1-ij]quinolin-4-one] displayed an MIC of at most 0.031 µg/mL.

`O=C1COc2ccc(N3C[C@@H](CCCN[C@H]4Cn5c(=O)cnc6cccc4c65)OC3=O)nc2N1` [Example 75, (R)-6-{3-[(R)-2-oxo-3-(3-oxo-3,4-dihydro-2H-pyrido[3,2-b][1,4]oxazin-6-yl)-oxazolidin-5-yl]-propylamino}-5,6-dihydro-pyrrolo[1,2,3-de]quinoxalin-3-one] showed an MIC of at most 0.031 µg/mL.

As to `O=C1CSc2ccc(N3C[C@@H](CCNC[C@H]4Cn5c(=O)ccc6nccc4c65)OC3=O)cc2N1` [Example 76, (S)-4-({2-[(R)-2-oxo-3-(3-oxo-3,4-dihydro-2H-benzo[1,4]thiazin-6-yl)-oxazolidin-5-yl]-ethylamino}-methyl)-4,5-dihydro-pyrrolo[3,2,1-de][1,5]naphthyridin-7-one], the MIC is at most 0.031 µg/mL.

The molecule `O=C1CSc2ccc(N3C[C@H](CCNC[C@H]4Cn5c(=O)ccc6nccc4c65)OC3=O)cc2N1` [Example 77, (S)-4-({2-[(S)-2-oxo-3-(3-oxo-3,4-dihydro-2H-benzo[1,4]thiazin-6-yl)-oxazolidin-5-yl]-ethylamino}-methyl)-4,5-dihydro-pyrrolo[3,2,1-de][1,5]naphthyridin-7-one] yielded an MIC of 0.031 µg/mL (≈ 0.0649 µM).

In turn, `O=C1CSc2ccc(N3C[C@H](CCNC[C@@H]4Cn5c(=O)ccc6nccc4c65)OC3=O)cc2N1` [Example 78, (R)-4-({2-[(S)-2-oxo-3-(3-oxo-3,4-dihydro-2H-benzo[1,4]thiazin-6-yl)-oxazolidin-5-yl]-ethylamino}-methyl)-4,5-dihydro-pyrrolo[3,2,1-de][1,5]naphthyridin-7-one] yielded an MIC of at most 0.031 µg/mL.

In turn, `O=C1CSc2ccc(N3C[C@H](CCCN[C@@H]4Cn5c(=O)cnc6ccc(F)c4c65)OC3=O)cc2N1` [Example 79, (S)-7-fluoro-6-{3-[(S)-2-oxo-3-(3-oxo-3,4-dihydro-2H-benzo[1,4]thiazin-6-yl)-oxazolidin-5-yl]-propylamino}-5,6-dihydro-pyrrolo[1,2,3-de]quinoxalin-3-one] showed an MIC of at most 0.031 µg/mL.

For `O=C1COc2ccc(N3C[C@H](CCCN[C@@H]4Cn5c(=O)cnc6ccc(F)c4c65)OC3=O)cc2N1` [Example 80, (S)-7-fluoro-6-{3-[(S)-2-oxo-3-(3-oxo-3,4-dihydro-2H-benzo[1,4]oxazin-6-yl)-oxazolidin-5-yl]-propylamino}-5,6-dihydro-pyrrolo[1,2,3-de]quinoxalin-3-one], the MIC is at most 0.031 µg/mL.

Take `O=C1CSc2ccc(N3C[C@H](CCCN[C@@H]4Cn5c(=O)ccc6cccc4c65)OC3=O)cc2N1` [Example 85, (S)-1-{3-[(S)-2-oxo-3-(3-oxo-3,4-dihydro-2H-benzo[1,4]thiazin-6-yl)-oxazolidin-5-yl]-propylamino}-1,2-dihydro-pyrrolo[3,2,1-ij]quinolin-4-one]: the minimum inhibitory concentration (MIC) is at most 0.031 µg/mL.
